# Structures can show the parent of a compound that is named as a salt. No end group written: not given here.
# Legend:
# mossy cells = assay: Electrophysiological recording of hippocampal mossy cells in brain slices; type: cell-based, mouse; settings: for activity of mossy cells: CNO perfused on slices
# Source text: Electrophysiological Evaluation of Hippocampal Mossy Cells […] To label and visualize mossy cells in hippocampal slices, a recombinant AAV vector (AAV2.EF1α.DIO.AcGFP1-myc) was bilaterally injected into the dentate hilus of the ventral hippocampus in […]. AcGFP1 was selectively expressed in the mossy cells. While recording the electrophysiological evaluation, the morphology, membrane capacitance and electrophysiological properties of the mossy cells were further confirmed. (2) Preparation of Slices 12-15-week male mice were euthanized with CO2. Subsequently, their brains were extracted and placed in an N-Methyl-D-glucamine-containing cutting solution (93 mM NMDG, 2.5 mM KCl, 1.2 mM NaH2PO4, 30 mM NaHCO3, 25 mM glucose, 20 mM HEPES, 5 mM sodium ascorbate, 3 mM sodium pyruvate, 2 mM thiourea, 0.5 mM CaCl2), 10 mM MgSO4. pH 7.4, 295-305 mM mOsm) on cold ice. The brain tissue slices (400-μm thickness) containing the ventral hippocampus were prepared using a VT1000 S Vibratome (Leica Microsystems Inc., Buffalo Grove, Ill., USA). After cutting, slices were allowed to recover in the cutting solution at 37° C. for 15 minutes, and then transferred to a recording solution at room temperature for at least 1 hour before recording of the electrophysiological evaluation. (3) Electrophysiological Recording Electrophysiological recordings were performed as described above. During recording, brain slices were placed in a perfusion chamber attached to a fixed stage of an upright microscope BX51WI (Olympus, Tokyo, Japan), and immersed in a continuously flowing oxygenated recording solution. Components contained in the solution are as follows: 125 mM NaCl, 25 mM NaHCO3, 25 mM glucose, 2.5 mM KCl, 1.25 mM NaH2PO4, 2 mM CaCl2) and 1 mM MgCl2, pH 7.4, 295-305 mM mOsm. Neurons were visualized with a 40× water immersion lens using near infrared (IR) light. Electrophysiological recording was performed using a Multiclamp 700B/Digidata 1440A system (Molecular Devices, Sunnyvale, Calif., USA). Patch electrodes were filled with an internal solution (126 mM K-gluconate, 10 mM KCl, 10 mM HEPES, 10 mM phosphocreatine, 4 mM ATP and 0.3 mM GTP, pH 7.3, 290 mM mOsmol). Whole-cell patch-clamp recordings were used to record spontaneous action potentials of mossy cells in the hippocampal slides, and all recording was performed at 37° C. […] In addition, CNO (1 mM) was perfused on the brain tissue slices to confirm the effect of Gi-DREADD. Experimental data was analyzed by pClamp10 software (Molecular Devices) and GraphPad Prism 6 (GraphPad Software, La Jolla, Calif., USA).
# mice [1] = assay: Novelty suppressed feeding test (NSF/NFS); type: in vivo, mouse; settings: in s (unit assumed); for NSF test latency: CNO 0.3 mg/kg
# Description: For chronic drug administration, 2 to 5 mice were housed in each cage. Fluoxetine hydrochloride (Spectrum Chemicals, USA) was intraperitoneally injected (10 mg kg-1 day-1) daily for 3 weeks. The drug was prepared by being dissolved in dimethyl sulfoxide (50%), and diluted with saline. For a control, a drug-free vehicle solution (0.9% saline) was administered daily. For a Gi-DREADD mouse experiment, clozapine-N-oxide (CNO; Sigma-Aldrich, USA) was directly dissolved in a 0.9% saline solution. A dose of CNO was 0.3 mg/kg, and 2 hours before each behavioral test, 100 μl/10 g of a solution per body weight was intraperitoneally injected.
# (4) Novelty Suppressed Feeding Test (NSF)
# (§1) The test was carried out for 15 minutes by partially changing a conventional method. 24 hours before behavioral testing, all food provided to the home cage was removed. […], a single 1.8-cm square-shaped food pellet was placed on a white filter paper positioned in the center of the test box. The mouse was placed in the corner of an open field, and a stopwatch was immediately operated. The latency to first bite food was recorded. Immediately after the test, the mice were placed in the home cage, and the amount of food intake was measured for 10 minutes.
# mice [2] = assay: Home cage feeding (HCF) test; type: in vivo, mouse; settings: for home cage feeding level: control AcGFP1 and PASIP-AcGFP1 mice, chronic fluoxetine
# Description: as §1
# [3] = test system: BrdU+ proliferating cells in the subgranular zone of the dentate gyrus; assay: BrdU labeling and neurogenic analysis; type: in vivo, mouse
# Description: 1-8. BrdU Labeling and Neurogenic Analysis
# Before the mice were sacrificed, a BrdU solution (200 mg/kg) was intraperitoneally administered for 3 hours. After transcardial perfusion, brain tissue was fixed with 4% PFA overnight, coronal sections with a 40-μm thickness were collected along the hippocampal rostro-caudal axis using a cryostat (CM3050S, Leica). The sections were processed using a free-floating method. Every sixth section throughout the hippocampus was subjected to BrdU immunohistochemical staining. Afterward, sections were pre-incubated with 1M HCl at 45° C. for 30 minutes to denature DNA, and washed three times with 0.1M PBS for neutralization. Immunohistochemistry was performed with α-BrdU (rat polyclonal, 1:200, Abcam, Cambridge, Mass., USA) and Alexa-Fluor™-conjugated secondary antibodies (1:400, Life Technologies, USA). A tester who was not given information on a slide code counted BrdU-labeled cells in the granule cell layer (GCL) and the subgranular zone (SGZ) of the dentate gyrus (DG) in the total of 12 sections derived from individual mice. The total number of BrdU-labeled cells per section was determined and multiplied by 6 to obtain the total number of cells per dentate gyrus.
# mice [4] = assay: Tail suspension test (TST); type: in vivo, mouse; settings: for inactivity (immobility) in TST: in s (unit assumed)
# Description: (5) Tail Suspension Test (TST) Mice were suspended by tails for 6 minutes. A test session was videotaped, and their immobility was scored using automated TST analysis software of Clever System (Reston, Va., USA). The immobility time during the last 4 minutes (excluding the initial 2 minutes) was calculated.
# [5] = test system: newborn postmitotic cells (DCX); assay: Doublecortin (DCX) immunostaining of immature neurons; type: in vivo, mouse; settings: chronic fluoxetine administration, control mice
# Description: 1-7. Immunohistochemistry
# Immunostaining was carried out using the standard free-floating method. Sections were washed three times with PBS for 10 minutes each time, and incubated with 2% normal donkey serum, 0.2% bovine serum albumin and 0.3% Triton-X100. After blocking, the sections were incubated with primary antibodies diluted with a blocking buffer overnight at 4° C., the following primary antibodies were used: α-doublecortin (goat polyclonal, 1:200, Santa Cruz Biotech.), α-calretinin (mouse monoclonal, 1:500, SWANT), α-parvalbumin (rabbit polyclonal, 1:1000, SWANT), α-neuropeptide Y (rabbit polyclonal, 1:1000, Phoenix Pharmaceutical), α-GluR2/3 (rabbit polyclonal, 1:100, Millipore). After incubation for 24 hours, the sections were washed three times with PBS containing 0.2% Triton-X100 (PBS-T) for 10 minutes, and then incubated with Alexa-Fluor™-conjugated secondary antibodies (1:400, Life Technologies, USA) at room temperature for 3 hours. The sections were washed three times with PBS-T at room temperature for 10 minutes, and covered with a Prolong™ Gold, anti-fading mounting medium (Life Technologies, USA).
# [6] = target: T1, p11/AnxA2/SMARCA3 complex (Homo sapiens, UniProt P07355+P60903); assay: Immunoprecipitation of p11/AnxA2/SMARCA3 complex in HEK293 cells; type: binding; settings: in vitro immunoprecipitation with α-SMARCA3, HEK293 cells
# T1 construct: endogenous in cells; host or cells: HEK293 (CRL-1573, ATCC)
# Description: 1-4. Immunoprecipitation of p11/AnxA2/SMARCA3 Complex
# HEK293 cells (CRL-1573, ATCC) were transfected with a CMV-Cre plasmid, and 24 hours after transfection, transfected with an AAV vector expressing the control AcGFP1 or PASIP-AcGFP1 construct. Immunoprecipitation was performed with α-SMARCA3 antibodies (rabbit polyclonal antibodies prepared with immunized peptides). Immunoblotting was performed using the following antibodies according to a standard protocol: α-p11 (mouse monoclonal, 1:1000, BD Biosciences), α-p11 (goat polyclonal, 1:200, R&D Systems), α-SMARCA3 (goat polyclonal, 1:200, NOVUS), α-AnxA2 (mouse monoclonal, Santa Cruz Biotech.), α-GFP (goat polyclonal, Santa Cruz Biotech).
# mice [7] = assay: Light and dark box test; type: in vivo, mouse; settings: PASIP-AcGFP1 mice vs control AcGFP1 154±16; p<0.01
# Description: (3) Light and Dark Box Test (LD Box)
# Mice were placed in an open field area (40×40×40 cm). A black box was inserted into the open field. The mice were placed into light compartments at the beginning of a session, and allowed to freely move between the compartments for 10 minutes. The time spent in each compartment and the latency to first enter the dark compartment were measured using automated Superflex™ software.
# T1 sequence (P60903 whole entry): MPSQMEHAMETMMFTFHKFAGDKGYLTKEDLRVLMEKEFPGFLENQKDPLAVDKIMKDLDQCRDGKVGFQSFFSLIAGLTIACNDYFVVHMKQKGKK
# T1 sequence (P07355 2-339 limits assumed): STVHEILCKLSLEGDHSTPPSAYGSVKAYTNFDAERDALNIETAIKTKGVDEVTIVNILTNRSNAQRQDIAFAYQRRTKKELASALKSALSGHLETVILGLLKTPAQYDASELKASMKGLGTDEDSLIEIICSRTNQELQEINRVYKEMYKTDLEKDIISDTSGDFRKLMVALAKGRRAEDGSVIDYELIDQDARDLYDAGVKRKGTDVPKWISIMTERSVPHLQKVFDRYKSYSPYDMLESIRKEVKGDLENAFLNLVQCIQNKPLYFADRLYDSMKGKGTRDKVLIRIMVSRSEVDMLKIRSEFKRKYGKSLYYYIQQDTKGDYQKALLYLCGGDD
compound,measurement,setting,value
"C[N+]1([O-])CCN(C2=Nc3cc(Cl)ccc3Nc3ccccc32)CC1 [CNO, clozapine-N-oxide]",activity of mossy cells,"mossy cells; Gi-DREADD mice, mCherry-labeled mossy cells",silenced
same,activity of mossy cells,mossy cells; control mCherry mice,not in control mice
"CNCCC(Oc1ccc(C(F)(F)F)cc1)c1ccccc1 (stereo not shown) [FLX, Fluoxetine hydrochloride]",NSF test latency,"mice [1]; Gi-DREADD mice, chronic FLX (SAL 450±36)",365±40
same,latency to access a food pellet,"mice [1]; Smarca3f/f control mice (D2-Cre experiment), chronic FLX (SAL 257±47)",104±12
same,latency to access a food pellet,"mice [1]; Smarca3f/f control mice (MC-Cre experiment), chronic FLX (SAL 338±20)",229±40
same,latency to access a food pellet,"mice [1]; Smarca3f/f;D2-Cre conditional knockout mice, chronic FLX (SAL 192±15)",232±32
same,latency to access a food pellet,"mice [1]; Smarca3f/f;MC-Cre conditional knockout mice, chronic FLX (SAL 405±88)",404±69
same,NSF test latency,"mice [1]; control (mCherry) mice, chronic FLX (SAL 484±85)",238±40
same,latency to feed,"mice [1]; control AcGFP1 mice, chronic fluoxetine (SAL 296±48)",147±22
same,latency to access a food pellet,"mice [1]; p11f/f control mice, chronic FLX 10 mg/kg/day i.p. 3 weeks (SAL 351±38)",165±24
same,latency to access a food pellet,"mice [1]; p11f/f;D2-Cre conditional knockout mice, chronic FLX (SAL 364±46)",296±58
same,home cage feeding level,mice [2],did not have a significant influence
same,food intake after coming back to the home cage,"mice [2]; control and p11 / Smarca3 cKO mice, chronic SSRI",no change in food intake
same,number of BrdU+ proliferating cells in the subgranular zone,"[3]; Gi-DREADD mice, chronic FLX (SAL 172±27)",232±20
same,number of BrdU+ proliferating cells in the subgranular zone,"[3]; control (mCherry) D2-Cre mice, chronic FLX (SAL 177±18)",337±37
same,BrdU+ proliferating cells,"[3]; control mice, chronic fluoxetine (SAL 173±16)",290±43
same,inactivity (immobility) in TST,"mice [4]; Gi-DREADD mice, chronic FLX (SAL 128±9)",129±10
same,inactivity (immobility) in TST,"mice [4]; control (mCherry) mice, chronic FLX (SAL 141±9)",110±9
same,mossy cell activity (spontaneous firing rate),mossy cells; acute fluoxetine treatment,had no effect on mossy cell activity
same,spontaneous firing rate of mossy cells,mossy cells; chronic fluoxetine treatment (control 2.36±0.41 Hz),4.19±0.92 Hz
same,survival and differentiation of newborn neuronal progenitors (DCX expression),[5],enhanced the survival of newborn neuronal progenitors and promoted differentiation into mature neurons
"PASIP-AcGFP1: p11/AnxA2/SMARCA3 complex inhibitory peptide-AcGFP1 fusion construct, expressed from a Cre-dependent AAV vector (GNGNGKVTFPKMKIPKFSGR; also: fused to AcGFP1)",latency to feed,"mice [1]; PASIP-AcGFP1 mice, SAL",304±51
same,latency to feed,"mice [1]; PASIP-AcGFP1 mice, chronic FLX",293±54
same,home cage feeding level,mice [2],did not have a significant influence
same,assembly of the p11/AnxA2/SMARCA3 complex,[6],able to block the assembly of the p11/AnxA2/SMARCA3 complex
same,BrdU+ proliferating cells,"[3]; PASIP-AcGFP1 mice (AAV, mossy cells), SAL",119±27
same,BrdU+ proliferating cells,"[3]; PASIP-AcGFP1 mice (AAV, mossy cells), chronic FLX",129±13
same,light/dark box test,mice [7],94±13
same,effect of fluoxetine in tail-suspension test,"mice [4]; PASIP-AcGFP1 mice, chronic fluoxetine",reduced an effect caused by fluoxetine administration
same,firing rate of mossy cells,mossy cells; mossy cells expressing construct (control AcGFP1 3.58±0.56 Hz),0.64±0.10 Hz
same,resting membrane potential in mossy cells,mossy cells; mossy cells expressing construct (control AcGFP1 −47.33±1.77 mV),−54.33±1.32 mV

# — US11230570B2, “Peptide for regulating reactivity to serotonin reuptake inhibitor based antidepressant, and use thereof” (DAEGU GYEONGBUK INSTITUTE OF SCIENCE AND TECHNOLOGY, priority 2018, dated 2022)
